Tests used:
[1] = Density, Mettler Toledo DA-100M density meter; format: physicochemical
Protocol: (§1) Using these solvents, the following solutions were prepared: • 100 mg/ml etonogestrel undecanoate in the different solvents • 50 mg/ml etonogestrel undecanoate in the different solvents • 200 mg/ml MENT undecanoate in the different solvents • 100 mg/ml MENT undecanoate in the different solvents • 50 mg/ml etonogestrel undecanoate+100 mg/ml MENT undecanoate in the different solvents
(§2) The solubility of the compounds in the solvents was determined visually. The viscosity was determined using a Brookfield model DV-III. The density of the solutions was determined using a Mettler Toledo DA-100M density meter.

[2] = Viscosity, Brookfield model DV-III; format: physicochemical
Protocol: as §1, §2

[3] = Solubility / appearance of solutions determined visually; conditions: for solubility (visual) in all four tested solvents: desired concentration 50 mg/ml etonogestrel-undecanoate, 100 mg/ml MENT-undecanoate
Protocol: as §1, §2

[4] = Pharmacokinetics of etonogestrel esters after one i.m. injection in the rabbit (plasma etonogestrel by LC-MSMS); format: in vivo; conditions: for peak levels of etonogestrel: one i.m. injection 20 mg/kg in arachis oil (40 mg/ml), rabbit plasma
Protocol: For the determination of the pharmacokinetic profile of the different etonogestrel-esters after parenteral application, i.m. application in the castrated rabbit model was chosen instead of s.c. Briefly, rabbits were injected once (day 1) with indicated etonogestrel-esters at 20 mg/kg in arachis oil (with a concentration of 40 mg/ml). At day 1, 2, 3, 4, 5, 6, 7, 8, 10, 12, 14, 21, 28, 35, 49, 63, 77, 92, 106, 120 and 133 blood was collected from the ear arteria, in EDTA-containing tubes. EDTA plasma was prepared (1500 g, 15 min) and stored at −20° C. With LC-MSMS, the amount of parent compound (etonogestrel) was determined in these samples. The lower limit of this new assay is 0.5 nmol/l, from 0-250 nmol/l a linear curve was obtained with a correlation coefficient of 0.9998.

[5] = Pharmacokinetics of androgen esters after one s.c. injection in the castrated rabbit (plasma MENT or testosterone by LC-MSMS); format: in vivo; conditions: one s.c. injection 20 mg/kg in arachis oil (100 mg/ml)
Protocol: For the determination of the pharmacokinetic profile of the different androgen-esters after s.c. application, the castrated rabbit model was selected as the model which is most similar to humans. Briefly, rabbits were injected once (day 1) with indicated androgen-esters at 20 mg/kg in arachis oil (with a concentration of 100 mg/ml). At day 2, 3, 4, 5, 8, 15, 22, 36, 44 and 58 blood was collected from the ear arteria, in EDTA-containing tubes. EDTA plasma was prepared (1500 g, 15 min) and stored at −20° C. With LC-MSMS, the amount of parent compound (testosterone or MENT) was determined in these samples. The lower limit of this new assay is 2 nmol/l, from 0-500 nmol/I a linear curve was obtained with a correlation coefficient of 0.9998.

[6] = one IM injection, hypogonadal men, FIG. 5 (Nieschlag and Behre 1997); cited from earlier work
[7] = one i.m. injection 20 mg/kg in arachis oil, rabbit
[8] = solvent arachis oil + 50% benzyl benzoate, etonogestrel undecanoate 50 mg/ml and/or MENT undecanoate 100 mg/ml
[9] = solvent arachis oil, etonogestrel undecanoate 50 mg/ml and/or MENT undecanoate 100 mg/ml
[10] = solvent ethyl undecanoate + 50% benzyl benzoate, etonogestrel undecanoate 50 mg/ml and/or MENT undecanoate 100 mg/ml
[11] = solvent ethyl undecanoate, etonogestrel undecanoate 50 mg/ml and/or MENT undecanoate 100 mg/ml

In the case of `CCCCCCCCCCC(=O)OCC` [Ethyl undecanoate], the Density ([1]; solvent alone) is reported as 0.861, the Viscosity ([2]; solvent alone) is reported as 2.6 and the Appearance ([3]; solvent alone) is reported as “Clear colourless solution”.
With `C#C[C@]1(OC(=O)CCCCCC)CC[C@H]2[C@@H]3CCC4=CC(=O)CC[C@@H]4[C@H]3C(=C)C[C@@]21CC` [Etonogestrel-heptanoate] the “peak levels of etonogestrel” value [4] was 120 nmol/L.
For `C#C[C@]1(OC(=O)CCCCCCCC)CC[C@H]2[C@@H]3CCC4=CC(=O)CC[C@@H]4[C@H]3C(=C)C[C@@]21CC` [Etonogestrel-nonanoate], the “peak levels of etonogestrel” value [4] was “lower peak levels” and the “duration of action (etonogestrel levels above 1 nmol/l)” value [4, 7] was “extended duration”.
Work on `CCCCCCCCCCC(=O)O[C@H]1CC[C@H]2[C@H]3[C@H](CC[C@]12C)[C@H]1CCC(=O)C=C1C[C@H]3C` [MENT-undecanoate] yielded a Density [1, 8] of 1.009 g/mL, a Density [1, 9] of 0.924 g/mL and a Density [1, 10] of 0.979 g/mL. It also gave a Density [1, 11] of 0.879 g/mL, a Viscosity [2, 8] of 35.0 cps and a Viscosity [2, 9] of 97.2 cps. The Viscosity [2, 10] was 6.1 cps, the Viscosity [2, 11] was 4.0 cps and the “heating temperature necessary to dissolve” value ([3]; 200 mg/ml in arachis oil) was “approximately 50 °C”. For the same compound, the “solubility (visual) in all four tested solvents” value [3] was “could be dissolved at two times the desired concentration”, the Appearance [3, 8] was “Clear yellowish solution” and the Appearance [3, 9] was “Clear yellowish solution”. For the same compound, the Appearance [3, 10] was “Clear colourless solution” and the Appearance [3, 11] was “Clear colourless solution”.
With `CCCCCCC(=O)O[C@H]1CC[C@H]2[C@@H]3CCC4=CC(=O)CC[C@]4(C)[C@H]3CC[C@]12C` [Testosterone enanthate, testosterone enanthate] the “pharmacokinetic profile of released MENT or testosterone” value [5] was “high peak of testosterone”.
For `C#CC1(OC(=O)CCCCCCCCC)CCC2C3CCC4=CC(=O)CCC4C3C(=C)CC21CC` (centres unmarked) [etonogestrel decanoate], the “peak levels of etonogestrel” value [4] was 24 nmol/L and the “time of initial peak level of etonogestrel” value [4, 7] was 5 days.
With `C#C[C@]1(OC(=O)CCCCCCCCCCC)CC[C@H]2[C@@H]3CCC4=CC(=O)CC[C@@H]4[C@H]3C(=C)C[C@@]21CC` [etonogestrel dodecanoate] the “peak levels of etonogestrel” value [4] was 9 nmol/L and the “time of initial peak level of etonogestrel” value [4, 7] was 8 days.
In the case of `C#C[C@]1(OC(=O)CCCCCCCCCCCC)CC[C@H]2[C@@H]3CCC4=CC(=O)CC[C@@H]4[C@H]3C(=C)C[C@@]21CC` [etonogestrel tridecanoate], the “peak levels of etonogestrel” value [4] is reported as “no initial levels of etonogestrel were observed”.
`C#C[C@]1(OC(=O)CCCCCCCCCC)CC[C@H]2[C@@H]3CCC4=CC(=O)CC[C@@H]4[C@H]3C(=C)C[C@@]21CC` [etonogestrel undecanoate] gave a Density [1, 8] of 1.006 g/mL, a Density [1, 9] of 0.919 g/mL and a Density [1, 10] of 0.978 g/mL. It also gave a Density [1, 11] of 0.870 g/mL, a Viscosity [2, 8] of 28.1 cps and a Viscosity [2, 9] of 76.6 cps. For the same compound, the Viscosity [2, 10] was 4.7 cps, the Viscosity [2, 11] was 3.2 cps and the “solubility (visual) in all four tested solvents” value [3] was “could be dissolved at two times the desired concentration”. The Appearance [3, 8] was “Clear yellowish solution”, the Appearance [3, 9] was “Clear yellowish solution” and the Appearance [3, 10] was “Clear colourless solution”. The Appearance [3, 11] was “Clear colourless solution”, the “peak levels of etonogestrel” value [4] was 13 nmol/L and the “duration of action (etonogestrel levels above 1 nmol/l)” value [4, 7] was “more than 92 days”.
In the case of `C#C[C@]1(O)CC[C@H]2[C@@H]3CCC4=CC(=O)CC[C@@H]4[C@H]3C(=C)C[C@@]21CC` [etonogestrel, (17α)-13-ethyl-17-hydroxy-11-methylene-18,19-dinorpregn-4-en-20-yn-3-one, reference compound], the “peak levels of etonogestrel” value [4] is reported as 200 nmol/L and the “time in which etonogestrel levels declined to below 1 nmol/l” value [4, 7] is reported as 28 days.
In the case of `CCCCCCCCCCC(=O)O[C@H]1CC[C@H]2[C@@H]3CCC4=CC(=O)CC[C@]4(C)[C@H]3CC[C@]12C` [testosterone undecanoate], the “pharmacokinetics of serum testosterone in humans” value [6] is listed as “low initial release and steady-state levels of long duration”.
